SMILES strings stand for the structures. Where a name gives a salt, the structure may show the parent alone. Where only a bound is given, the exact number is not on record here.

Results on two compounds are retold here after USRE39608E1, “Substituted benzimidazoles and their use as PARP inhibitors” (Abbott GmbH & Co. KG, priority 1998, dated 2007).

The nature of series [1]: Determination of the water solubility. Type of series: physicochemical. Particulars: pH of from 5 to 6 with sodium acetate solution. As for the experimental part: A compound to be measured was dissolved directly in a specified volume of water and the resulting solution was brought to a pH of from 5 to 6 with a sodium acetate solution so that the concentration of the active compound to be tested was reached. If the test substance was not present as a water-soluble salt, it was dissolved in a very small amount of dimethyl sulfoxide and then diluted with water (final concentration of dimethyl sulfoxide≦1%), after which the pH was adjusted here too. Here, Example 1 according to the invention gave a solubility of >0.5%.

The conditions of series [2]: S. Cuzzocrea et al., Br. J. Pharmacol. 121 (1997); cited from earlier work.

For `NC(=O)c1cccc2[nH]c(C3CCNCC3)nc12` [Example 1, 2-(Piperidin-4-yl)benzimidazole-4-carboxamide.2 HCl], the solubility in series [1] is given as greater than 0.5%.
As to `NC(=O)c1cccc(N)c1` [3-aminobenzamide], in series [2], the “protective effects in a model for circulatory shock” value is “protective effects”.
